According to patent US20220259254A1, “TRANS-CYCLOOCTENE BIOORTHOGONAL AGENTS AND USES IN CANCER AND IMMUNOTHERAPY” (Tambo, Inc., priority 2019, published 2022):
Entries after “also recorded” stand apart in the source; their conditions may differ.

Experiments:
MC38 tumor [1] = test: MC38 dual tumor model (injected and non-injected tumor), tumor growth inhibition and survival;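 as to all read-outs here: male C57BL/6 mice carrying two subcutaneous MC38 flank tumors, with treatment given peritumorally beside the larger tumor only and both tumors sized by caliper three times per week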; settings: for response of non-injected tumors: non-injected tumor (FIG. 6C); for antitumor activity on non-injected tumor compared with G4: P<0.001; for 1-T/C (%) / T/C (%): vs G4 saline; for TV, tumor volume at Day 7: Day 7 = treatment start, all groups peritumoral BIOMATERIAL 1; for survival, statistical difference from Saline: log-rank (Mantel-Cox) test; for tumor growth curves, statistical difference from Saline: unpaired t test with Welch's correction for each day, groups 4, 5, 8
Experimental: For groups 4-10 (dual tumor model), Immunocompetent male C57BL/6 mice were inoculated SC in the right flank with 5×10^5 MC38 tumor cells (large injected tumor) and in the left flank with 1×10^5 MC38 tumor cells (small non-injected tumor).
Prior to injection, the MC38 cells were suspended in 0.1 mL DMEM media mixed with 50% Matrigel for tumor development. When the average tumor volume of the large tumor reached approximately 100 mm^3, animals were randomly grouped according to body weight and tumor volume into 10 treatment groups with 5-10 mice per group. All groups received peritumoral biomaterial injections (100 μL/mouse) near the large tumor (hereafter, the injected tumor). One hour later, groups 1, 4 and 10 were IV administered saline control (QD×5 days); groups 2, 8 and 9 were IV administered PRODRUG 1 prodrug (28.6 mg/kg Dox Eq QD×5 days; cumulative dose of 143 mg/kg Dox Eq) and group 5 was IV administered Dox HCl control (MTD; 8.1 mg/kg Q4D×3 doses; cumulative dose of 24.3 mg/kg). Tumor volumes for both tumors were measured three times weekly in two dimensions using a caliper, and the volume expressed in mm^3. 8 groups were used to assess the tumor growth inhibition, while groups 9 and 10 (PRODRUG 1, saline n=10/group) were used to determine the immune cell infiltration using flow cytometry. Groups 3, 6 and 7 (n=10) were used to test Dox+ TLR9 agonist (SL-01) and PRODRUG 1+ TLR9 agonist. The TLR9 agonist was given as an intratumoral injection in the primary tumors alone after the last PRODRUG 1 or Dox dose at 25 μg per mouse.
Eighty-five animals were enrolled into the efficacy study. When tumor volume reached an average volume of approximately 100 mm^3, animals were randomized as below using block randomization by Excel based upon their tumor size. […] 5×10^5 MC-38 cells suspended in 100 μL PBS mixed with 50% matrix gel were inoculated subcutaneously into the right flank. For Groups 4 through 10, 1×10^5MC-38 cells suspended in 100 μL PBS mixed with 50% matrix gel were inoculated subcutaneously into the left flank.
Tumor volume was measured thrice weekly in two dimensions using a caliper, and the volume was expressed in mm^3 using the formula: V=0.5 a×b^2, where a and b are the long and short diameters of the tumor, respectively. The tumor volume was then used for calculations of both T-C and T/C values. T-C was calculated with T as the median time (in days) required for the treatment group tumors to reach a predetermined size, and C as the median time (in days) for the control group tumors to reach the same size.

MC38 tumor [2] = test: MC38 subcutaneous syngeneic single tumor model, tumor growth inhibition; type: in vivo, C57BL/6 mice
[3] = system: tumor-infiltrating lymphocytes (TILs); test: flow cytometry of tumor-infiltrating immune cells in dual MC38 tumors; type: in vivo, C57BL/6 mice; settings: for % CD45+CD3+ cells versus saline: 2 weeks after treatment completion
Experimental: In the same study, 2 groups (n=10) of mice with dual MC38 tumors were used for tumor immune cell profiling and were treated with either BIOMATERIAL 1/PRODRUG 1 TREATMENT or saline. Each group was further divided into 2 subgroups of 5 mice each. Tumor collection was performed on the first and second subgroups at 1 and 2 weeks, respectively. […] The cell percentage of each population of interest was identified (Table 6).
For tumor samples, tumor tissues were homogenized using the Miltenyi Tumor Dissociation kit. Single cell suspension from tumor samples were RBC lysed, centrifuged to pellet cells, washed with cold PBS and resuspend cell pellets in the staining buffer and store on ice. Cells were then ready for FACS antibody staining.
1. For each sample, added cells (<10×10^6 cells/tube) in the staining buffer, into an Eppendorf tube labeled with correct sample name. • Panel 1: Live-dead/CD45/CD3/CD4/CD8/CD25/PD-1 • Panel 2: Live-dead/CD45/CD3/CD4/CD25/Foxp3
2. For each tissue type (tumor), prepared two extra tubes (see below) and added cells (<10×10^6 cells/tube) in the staining buffer into these two tubes. • Tube: no-color • Tube: live-dead only*** • Tube: no-color (fix/perm) • Tube: live-dead only (fix/perm) • Note: These two tubes served as gating control for each tissue type. • *** The live-dead only tube was also used for live-dead compensation. Compensation for 8 fluorochrome-conjugated antibodies was prepared separately, using compensation beads from BD and following vendor's manual.
3. Prepared FcR blocking solution (100 μL per tube×tube numbers) by diluting FcR blocking antibody at 1/100 in staining buffer • Note: Since two Brilliant Violet dyes were used in the FACS panel, BD Horizon Brilliant Stain Buffer were added at 5 μL per 100 μL FcR blocking solution
4. Resuspended cell pellets in 100 μL FcR blocking solution and incubated at RT in dark for 3 min
5. For panel 1, added FACS antibodies to desired concentrations (2 μg/ml for each antibody). Incubated at 4° C. in dark for 30 min. For panel 2, added FACS antibodies (except foxp3) to desired concentrations (2 μg/ml for each antibody), incubated at 4° C. in dark for 30 min, then fixated/permeabilized the cells at 4° C. for 40-50 min, and added foxp3 antibody to desired concentrations (2 μg/ml) at 4° C. in dark for 40 min.
6. Added 1 ml staining buffer, centrifuged at 350 g for 4 min at 4° C. to wash and pellet cells
7. Resuspended cells in “Tube: no color” with 500 μL staining buffer (no live-dead added)
8. Resuspended cells in all other tubes with 500 μL staining buffer with 1 μg/ml live-dead
9. Cells were ready for FACS analysis and were subjected to analysis by the Attune Nxt Flow Cytomter (ThermoFisher)
For Group 9 and Group 10, 5 and 5 mice were sacrificed at 1 and 2 weeks respectively after dosing completion. Tumors were collected for FACS.

MC38 tumor cells = test: MC38 tumor re-challenge study; type: in vivo, C57BL/6 mice; settings: 5×10^5 MC38 cells SC at left flank on Day 70; versus naïve mice; listed as BIOMATERIAL 1/PRODRUG 1
Experimental: Aside from the dual-tumor groups, this study also investigated a tumor re-implantation in mice inoculated with only one MC38 tumor. On Day 38, all animals in group G2 (Table 1)(n=8) were treated with a second cycle of BIOMATERIAL 1/PRODRUG 1-100-μL intratumoral BIOMATERIAL 1 injection followed by 5 daily doses (1 dose per day) of PRODRUG 1—this time at 11.9 mg/kg/dose Dox Eq (59.3 mg/kg/cycle Dox Eq).
In addition, mice from group G3 (Table 1) (n=5), and mice from dual tumor groups G6, G7, and G8 (n=10) were rechallenged.

bacteria = test: activity against bacteria measured by microcalorimetry; type: cell-based; settings: tested up to 64 μg/ml (32 μM)
Description: Example A7C can be synthesized using a protocol analogous to Example A7B.

[4] = dual tumor mice, injected tumor
[5] = dual tumor mice, non-injected tumor
[6] = injected tumor, dual tumor mice, D21
[7] = injected tumor, dual tumor mice
[8] = non-injected tumor, dual tumor mice, D24
[9] = non-injected tumor, dual tumor mice
[10] = injected tumor, single tumor mice, D21, vs G1 saline

For `COc1cccc2c1C(=O)c1c(O)c3c(c(O)c1C2=O)C[C@@](O)(C(=O)CO)C[C@@H]3O[C@H]1C[C@H](N)[C@H](O)[C@H](C)O1` [Dox, doxorubicin, reference compound], the “antitumor activity on injected tumor compared with control group G4” value (MC38 tumor [1]; [4]) was “significant antitumor activity”, the “response of non-injected tumors” value (MC38 tumor [1]; dual tumor mice) was “progressive growth” and the “antitumor activity on non-injected tumor compared with G4” value (MC38 tumor [1]; [5]) was “significant antitumor activity”. The “1-T/C (%)” value (MC38 tumor [1]; [6]) was 34%, the “T/C (%)” value (MC38 tumor [1]; [6]) was 66% and the “TV, tumor volume at Day 7” value (MC38 tumor [1]; [7]) was 93 ± 8.5 mm^3. For the same compound, the “TV, tumor volume at Day 21” value (MC38 tumor [1]; [7]) was 810 ± 196.4 mm^3, the “survival, statistical difference from Saline” value (MC38 tumor [1]; dual tumor mice) was “not significantly different” and the “1-T/C (%)” value (MC38 tumor [1]; [8]) was 66%. The “T/C (%)” value (MC38 tumor [1]; [8]) was 34%, the “TV, tumor volume at Day 12” value (MC38 tumor [1]; [9]) was 67 ± 18.8 mm^3 and the “TV, tumor volume at Day 24” value (MC38 tumor [1]; [9]) was 93 ± 19.2 mm^3. The “tumor growth curves, statistical difference from Saline” value (MC38 tumor [1]) was “not significantly different”.
In the case of `COc1cccc2c1C(=O)c1c(O)c3c(c(O)c1C2=O)C[C@@](O)(C(=O)CO)C[C@@H]3O[C@H]1CC(NC(=O)O[C@@H]2/C=C/CC[C@](C)(C(=O)NCC(=O)O)CC2)[C@H](O)C(C)O1` (stereo partly shown) [PRODRUG 1], the complete remission (MC38 tumor [2]; MC38 model) is reported as 10 % of mice treated, the “1-T/C (%)” value (MC38 tumor [2]; [10]) is reported as 62% and the “T/C (%)” value (MC38 tumor [2]; [10]) is reported as 38%. The “TV, tumor volume at Day 7” value (MC38 tumor [2]; injected tumor, single tumor mice, Day 7 = treatment start, all groups peritumoral BIOMATERIAL 1) was 94 ± 6.3 mm^3, the “TV, tumor volume at Day 21” value (MC38 tumor [2]; injected tumor, single tumor mice, Day 21, all groups peritumoral BIOMATERIAL 1) was 393 ± 100.5 mm^3 and the “antitumor activity compared with control group G1” value (MC38 tumor [2]; single tumor mice, P<0.001) was “significant antitumor activity”. The “immune cell profile versus saline group” value ([3]; 1 week after completion of treatment) was “no differences”, the “total number of TILs” value ([3]; injected and non-injected tumors, at 2 weeks, not after 1 week, listed as BIOMATERIAL 1/PRODRUG 1) was “increased the total number of TILs” and the “PD-1 expression in CD8+ cells versus saline” value ([3]; injected or non-injected tumors) was “no difference”. For the same compound, the “percentage of CD4+ cells versus saline” value ([3]; injected tumor, 2 weeks) was “significantly higher”, the “percentage of CD8+ cells versus saline” value ([3]; injected tumor, 2 weeks) was “significantly higher” and the “percentage of PD-1+CD4+ T cells versus saline” value ([3]; injected tumors, 2 weeks) was “higher percentage”. The “% CD45+CD3+ cells versus saline” value ([3]; injected tumors) was “increased”, the “percentage of FoxP3+ cells versus saline” value ([3]; injected tumors, 2 weeks, no statistical significance) was “lower” and the “CD4+ cell percentage versus saline” value ([3]; non-injected tumor, 2 weeks) was “significantly higher”. The “CD4+CD25+ FoxP3+ cells (Tregs)” value ([3]; non-injected tumors, 2 weeks) was “no CD4+CD25+ FoxP3+ cells observed”, the “difference in PD-1+CD4+ T cells versus saline” value ([3]; non-injected tumors, 2 weeks) was “not observed” and the “% CD45+CD3+ cells versus saline” value ([3]; non-injected tumors) was “increased”. For the same compound, the “cell percentage of CD8+ cells versus saline” value ([3]; non-injected tumors, 2 weeks, no statistical significance) was “appeared higher”, the “tumor growth after re-challenge with MC38 cells” value (MC38 tumor cells) was “suppressed; also recorded: sustained anti-tumor response” and the “antitumor activity on injected tumor compared with control group G4” value (MC38 tumor [1]; [4]) was “significant antitumor activity”. The “antitumor response / tumor growth inhibition compared with conventional Dox treatment” value (MC38 tumor [1]; dual tumor mice, injected tumor, p<0.05, listed as BIOMATERIAL 1/PRODRUG 1) was “significantly improved antitumor response; also recorded: improved tumor growth inhibition”, the “response of non-injected tumors” value (MC38 tumor [1]; dual tumor mice) was “sustained anti-tumor responses” and the “antitumor activity on non-injected tumor compared with G4” value (MC38 tumor [1]; [5]) was “significant antitumor activity”. The “overall survival compared with conventional Dox treatment” value (MC38 tumor [1]; dual tumor mice, p<0.001, listed as BIOMATERIAL 1/PRODRUG 1) was “significantly improved”, the “1-T/C (%)” value (MC38 tumor [1]; [6]) was 75% and the “T/C (%)” value (MC38 tumor [1]; [6]) was 25%. For the same compound, the “TV, tumor volume at Day 7” value (MC38 tumor [1]; [7]) was 93 ± 5.6 mm^3, the “TV, tumor volume at Day 21” value (MC38 tumor [1]; [7]) was 322 ± 45.9 mm^3 and the “survival, statistical difference from Saline” value (MC38 tumor [1]; dual tumor mice) was “significantly different”. For the same compound, the “1-T/C (%)” value (MC38 tumor [1]; [8]) was 70%, the “T/C (%)” value (MC38 tumor [1]; [8]) was 30% and the “TV, tumor volume at Day 12” value (MC38 tumor [1]; [9]) was 42 ± 3.8 mm^3. For the same compound, the “TV, tumor volume at Day 24” value (MC38 tumor [1]; [9]) was 53 ± 5.2 mm^3 and the “tumor growth curves, statistical difference from Saline” value (MC38 tumor [1]) was “significantly different”.
With `CC(C)CC(C(=O)N[C@H]1C(=O)N[C@@H](CC(N)=O)C(=O)N[C@H]2C(=O)N[C@H]3C(=O)N[C@H](C(=O)N[C@H](C(=O)O)c4cc(O)cc(O)c4-c4cc3ccc4O)[C@H](O)c3ccc(c(Cl)c3)Oc3cc2cc(c3O[C@@H]2O[C@H](CO)[C@@H](O)[C@H](O)[C@H]2O[C@H]2C[C@](C)(NC(=O)O[C@@H]3/C=C/CC[C@](C)(C(=O)NCC(=O)O)CC3)[C@H](O)[C@H](C)O2)Oc2ccc(cc2Cl)[C@H]1O)N(C)C(=O)O[C@@H]1/C=C/CC[C@](C)(C(=O)NCC(=O)O)CC1` (stereo partly shown) [Vanco-Bis-TCO-Glycine] the activity against bacteria (bacteria) was “no activity”.
